{
  "source": "patent US7820851B2",
  "about": "“Isotopically labeled polyfluorinated compound useful as an imaging tracer” (PerkinElmer Health Sciences, Inc., priority 2006, dated 2010)",
  "origin": "cited, not measured here",
  "key": {"[1]": {"conditions": "reported value; context: PFOA levels in American residents"}},
  "note": "Where two headings read alike, the source gives them in different places.",
  "data": [
    {"smiles": "O=C(O)C(F)(F)C(F)(F)C(F)(F)C(F)(F)C(F)(F)C(F)(F)C(F)(F)F", "note": "[PFOA, Perfluorooctanoic acid]", "values": [
      {"measurement": "elimination half-life", "setting": "[1]", "result": 4, "unit": "years"},
      {"measurement": "primary tissues of distribution of PFOA-derived carbon-14", "setting": "female rats", "result": "liver, plasma, and kidney"},
      {"measurement": "elimination of PFOA-derived radioactivity in the urine", "setting": "female rats, carbon-14 labeled PFOA", "result": "rapidly"},
      {"measurement": "primary tissues of distribution of PFOA-derived carbon-14", "setting": "male rats", "result": "liver and plasma"},
      {"measurement": "administered carbon-14 eliminated in the urine", "setting": "male rats, carbon-14 labeled PFOA, in the same period", "result": 6, "unit": "%"}
    ]}
  ]
}
